# Assay results reported in ChEMBL document CHEMBL1138303, “Putative bioactive conformations of amide linked cyclic myelin basic protein peptide analogues associated with experimental autoimmune encephalomyelitis” (J Med Chem, 2007).
# The source made the active and inactive calls. No cut-off for these calls is given here. Peptide text beside a SMILES is read from it.
# Assays:
# [1] = Solubility per 100 uL of the compound; assay type: physicochemical
# [2] = species on record: Rattus norvegicus; test: Inhibition of encephalitogenic MBP(74-85)-induced encephalomyelitis in Lewis rat; assay type: functional, organism-based
Solubility [1] [mg],Structure (SMILES),Activity [2]
16,CC[C@H](C)[C@@H]1NC(=O)[C@H](CC(N)=O)NC(=O)[C@H](CCCCN)NC(=O)[C@H](Cc2ccccc2)NC(=O)[C@H](Cc2ccccc2)NC(=O)[C@H](Cc2c[nH]cn2)NC(=O)[C@H](C(C)C)NC(=O)[C@@H]2CCCN2C(=O)[C@H]([C@@H](C)O)NC(=O)[C@H](CCCNC(=N)N)NC(=O)[C@@H]2CCCN2C(=O)[C@H]([C@@H](C)O)NC(=O)[C@H](C(C)C)NC1=O,–
1.15,"CC[C@H](C)[C@@H]1NC(=O)[C@H](CC(N)=O)NC(=O)[C@H](C)NC(=O)[C@H](Cc2ccccc2)NC(=O)[C@H](Cc2ccccc2)NC(=O)[C@H](Cc2c[nH]cn2)NC(=O)[C@H](C(C)C)NC(=O)[C@@H]2CCCN2C(=O)[C@H]([C@@H](C)O)NC(=O)[C@H](CCCNC(=N)N)NC(=O)[C@H](C)NC(=O)[C@H]([C@@H](C)O)NC(=O)[C@H](C(C)C)NC1=O (HELM PEPTIDE1{A.N.I.V.T.A.R.T.P.V.H.F.F}$PEPTIDE1,PEPTIDE1,1:R1-13:R2$$$V2.0)",Active
16.25,"CC[C@H](C)[C@@H]1NC(=O)[C@H](CC(N)=O)NC(=O)[C@H](CCCNC(=N)N)NC(=O)[C@H](Cc2ccccc2)NC(=O)[C@H](Cc2ccccc2)NC(=O)[C@H](Cc2c[nH]cn2)NC(=O)[C@H](C(C)C)NC(=O)[C@@H]2CCCN2C(=O)[C@H]([C@@H](C)O)NC(=O)[C@H](CCCNC(=N)N)NC(=O)[C@H](C)NC(=O)[C@H]([C@@H](C)O)NC(=O)[C@H](C(C)C)NC1=O (HELM PEPTIDE1{A.R.T.P.V.H.F.F.R.N.I.V.T}$PEPTIDE1,PEPTIDE1,1:R1-13:R2$$$V2.0)",Active
